pIC50: −log10 of the molar value. Calls of active or inactive are those of the source. The calls are words filed in the database; no cut-off is given here.
What was measured:
[1] = The compound was evaluated for the affinity towards PGE-2 receptor
[2] = target: Prostacyclin receptor (Homo sapiens) (UniProt P43119); assay: The compound was evaluated for the affinity towards Prostaglandin I2 receptor
[3] = Concentration required for the inhibition of blood platelet aggregation induced by ADP; format: functional
[4] = target: Prostacyclin receptor (Homo sapiens) (UniProt P43119); assay: The compound was evaluated for the affinity towards Prostaglandin I2 receptor; no competition
[5] = target: Prostacyclin receptor (Homo sapiens) (UniProt P43119); assay: The compound was evaluated for the affinity towards Prostaglandin I2 receptor; not parallel
[6] = target: T1, Prostaglandin D2 receptor (Homo sapiens) (UniProt Q13258); assay: The compound was evaluated for the affinity towards PGD-2 receptor
T1 sequence (whole entry): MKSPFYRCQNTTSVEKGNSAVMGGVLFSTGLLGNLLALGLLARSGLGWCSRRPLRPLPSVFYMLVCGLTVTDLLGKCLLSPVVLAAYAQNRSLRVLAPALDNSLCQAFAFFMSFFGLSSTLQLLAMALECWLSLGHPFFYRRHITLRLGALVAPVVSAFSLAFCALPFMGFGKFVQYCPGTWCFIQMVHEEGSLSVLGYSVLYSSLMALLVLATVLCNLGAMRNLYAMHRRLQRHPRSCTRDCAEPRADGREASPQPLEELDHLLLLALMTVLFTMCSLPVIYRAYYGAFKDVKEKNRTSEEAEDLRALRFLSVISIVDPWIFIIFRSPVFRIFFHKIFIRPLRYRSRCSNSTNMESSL

[7] = The compound was evaluated for the affinity towards PGE-2 receptor; no competition

Prostacyclin receptor (Homo sapiens), sequence (P43119 whole entry): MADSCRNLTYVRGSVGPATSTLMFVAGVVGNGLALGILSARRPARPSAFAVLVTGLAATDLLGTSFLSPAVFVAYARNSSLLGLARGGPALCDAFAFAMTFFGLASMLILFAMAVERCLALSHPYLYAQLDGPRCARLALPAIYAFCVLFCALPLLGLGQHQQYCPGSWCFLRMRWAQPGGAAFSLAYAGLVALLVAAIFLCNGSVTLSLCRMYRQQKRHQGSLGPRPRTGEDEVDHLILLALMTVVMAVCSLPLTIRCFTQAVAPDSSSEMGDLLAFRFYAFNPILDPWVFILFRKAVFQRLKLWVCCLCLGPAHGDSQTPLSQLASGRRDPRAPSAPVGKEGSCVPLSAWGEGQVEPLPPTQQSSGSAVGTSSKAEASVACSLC

Row | SMILES | KF [1] | KF [2] | pIC50 [3] | KF [4] | KF [5] | KF [6] | KF [7]
1 | CCCCC[C@H](O)/C=C/[C@H]1[C@H](O)CC(=O)[C@@H]1CC(=O)CCCCC(=O)O | 7.1 | 129 | 8.15 |  |  |  | 
2 | CC#CC[C@H](C)[C@H](O)/C=C/[C@@H]1[C@@H](CC(=O)CCCCC(=O)O)[C@@H](F)C[C@H]1O |  |  | 6.00 | inactive |  |  | 
3 | CCC#CC[C@H](C)[C@H](O)C#C[C@H]1[C@H](O)CC(=O)[C@@H]1CC(=O)CCCCC(=O)O | 7.5 | 5 | 10.05 |  |  |  | 
4 | CCC#CC[C@H](C)[C@H](O)C#C[C@@H]1[C@@H](CC(=O)CCCCC(=O)O)[C@H](F)C[C@H]1O | 700 |  | 7.70 |  | 32 |  | 
5 | CC#CC[C@H](C)[C@H](O)/C=C/[C@H]1[C@H](O)CC(=O)[C@@H]1CC(=O)CCCCC(=O)O | 40 |  | 9.00 |  | 40 |  | 
6 | O=C(O)CCCCC(=O)C[C@H]1C(=O)C[C@@H](O)[C@@H]1/C=C/[C@@H](O)C1CCCCC1 |  | 58 | 8.52 |  |  | 70 | inactive
7 | CC#CC[C@H](C)[C@H](O)/C=C/[C@@H]1[C@@H](CC(=O)CCCCC(=O)O)[C@H](F)C[C@H]1O |  |  | 7.00 |  | 200 |  | 
8 | CC#CCC(C)[C@H](O)/C=C/[C@H]1[C@H](O)CC(=O)[C@@H]1CC(=O)CCCCC(=O)O (some centres undefined) | 140 | 60 | 8.80 |  |  | 600 | 

Source: ChEMBL document CHEMBL1151021, “Synthesis of potent 6-oxo and 9-fluoro-PGE1-derivatives and their biological properties” (Bioorg Med Chem Lett, 1992)
